Consider one compound from patent publication US6479033B1, “Antitumor cystostatic and contrast agent” (priority 1994, dated 2002).

This experiment concerns Tumor. The experiment is described as follows: Tumor growth and contrasting agent in the liver after treatment (carboplatin, Spherex, gelatin foam). Format: in vivo. The note with it: carboplatin encapsulated in SUV-PEG. An excerpt: The following Table summarizes results obtained using carboplatin as the cytostatic drug encapsulated in SUV-PEG and Spherex gelatin foam as the starch particle.

Consider `N.N.O=C([O-])C1(C(=O)[O-])CCC1.[Pt+2]` [Carboplatin, carboplatin], for which the “Tumor growth by a factor of (7 days after treatment)” value is 1.45 ± 0.96.
